{"source": "patent US6294568A", "about": "“5-arylpyrrole derivatives” (priority 1997, dated 2001)", "key": {"carrageenan footedema": {"system": "carrageenan footedema", "assay": "Carrageenan Footedema Suppression Test", "type": "in vivo, SD rats", "settings": "oral; paw volume three hours after carrageenan administration"}, "Human COX-1": {"biological_target": "T1, Human COX-1 (Homo sapiens, UniProt P23219)", "T1 construct": "endogenous in cells; host or cells: whole blood of a healthy human donor (own knowledge: TXB2 of clotting blood comes from platelet COX-1)", "T1 sequence (P23219 24-599)": "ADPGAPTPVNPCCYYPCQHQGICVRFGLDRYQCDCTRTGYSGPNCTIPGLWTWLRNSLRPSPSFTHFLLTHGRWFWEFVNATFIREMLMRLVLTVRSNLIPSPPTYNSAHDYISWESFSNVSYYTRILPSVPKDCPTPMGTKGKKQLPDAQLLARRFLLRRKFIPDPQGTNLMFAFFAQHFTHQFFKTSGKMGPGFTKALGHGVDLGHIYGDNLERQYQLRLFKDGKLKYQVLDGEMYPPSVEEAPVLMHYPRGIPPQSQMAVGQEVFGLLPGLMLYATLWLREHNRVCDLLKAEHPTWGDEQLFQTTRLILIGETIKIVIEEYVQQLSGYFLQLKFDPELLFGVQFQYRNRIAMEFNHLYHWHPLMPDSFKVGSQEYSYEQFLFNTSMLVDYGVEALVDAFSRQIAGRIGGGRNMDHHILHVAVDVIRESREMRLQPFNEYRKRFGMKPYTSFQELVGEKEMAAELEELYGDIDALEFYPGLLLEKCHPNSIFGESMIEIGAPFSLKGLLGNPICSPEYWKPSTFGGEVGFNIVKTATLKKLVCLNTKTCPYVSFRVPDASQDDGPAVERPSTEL", "assay": "Human COX-1 Inhibitory Activity Test (TXB2 in blood)", "type": "cell-based", "settings": "IC50 from Hill Plot"}, "Brewer's Yeast Fever": {"system": "Brewer's Yeast Fever", "assay": "Antipyretic Action Test With Respect To Brewer's Yeast Fever", "type": "in vivo, rats", "method": "The antipyretic action was measured as described in the following. A sensor was inserted into the rectum of each rats and the body temperature of one hour after the insertion was recorded as the basal body temperature. The rats were injected subcutaneously with 2 ml/body of 20% brewer's yeast at the region of back and, 18 hours after the injection, the intrafebrile body temperatures were measured. Rats who had shown not less than 0.75° C. of body temperature elevation were selected to whom the test samples was administered orally. The body temperatures of the selected rats were measured every one hour for the following 5 hours. The dosage of each of the test samples was 10 mg/kg."}, "[1]": {"system": "pain threshold of brewer's yeast inflamed hind paw", "assay": "Analgesic Action Test (Randall et al.)", "type": "in vivo, SD rats", "settings": "3 mg/kg oral, 3 hours", "method": "SD rats (6 rats per group) fasted overnight were employed for the test. After the measurement of pain threshold values of the left and right hind paws twice using an analgesimeter, the rats were injected subcutaneously with 0.1 ml of 20% brewer's yeast solution at the plantar area of the right hind paw to elicit inflammation. Two hours after the elicitation of inflammation, the pain threshold values of the left and right hind paws were measured and, immediately after the measurement, the test samples were administered orally to the rats. Three hours after the administration, the pain threshold values of the left and right hind paws were measured. […] The dosage amount of each of the test samples was 3 mg/kg.\nPain threshold value rising rate (%)=((pain threshold value of 3 hours after drug administration-pain threshold value of 2 hours after yeast administration)/(pain threshold value before yeast administration-pain threshold value of 2 hours after yeast administration))×100\nPain threshold value fluctuation rate (%)=(1 -(pain threshold value of 3 hours after drug administration/pain threshold value of 2 hours after […]"}, "CaCo-2 cells": {"system": "CaCo-2 cells", "assay": "Apoptosis Induction Test in CaCo-2 Cells", "type": "cell-based", "settings": "24 hours, propidium iodide staining, fluorescence microscope", "method": "CaCo-2 cells were adjusted in 10% FBS/DMEM/NEAA to 1.0×10^5 cells/ml concentration and then pipetted into a 6 well plate in an amount of 3 ml/well. The cells were cultured under the conditions of at 37° C. in 5% CO2 atmosphere for 24 hours to allow the cell adhesion. Only the medium solution (0.1% ethanol) was exchanged in the control group, and the compound of the invention (Preparation Example 1) group was transferred to culture mediums containing the compound adjusted to each of the specified concentrations, then the cells were cultured under the condition of at 37° C. in 5% CO2 atmosphere for 24 hours. Then the culture medium and the adhesive cells separated of the adhesion by trypsin were collected and centrifuged at 1000 rpm for 5 minutes to remove the supernatant. The cells were washed with PBS(-) and then 20 μl of 90% ethanol/0.5% triton×100/10mM EDTA/10mM Tris-HCl (pH7.4) and 5 μl of propidium iodide (1 μg/ml) were added thereto to stain the nucleuses. A drop of the stained cell solution was placed on a preparation glass to be examined by a fluorescence microscope at B range."}}, "note": "pIC50: −log10 of the molar value.", "data": [{"smiles": "Cc1cc(-c2ccc(F)cc2)c(-c2ccc(S(C)(=O)=O)cc2)[nH]1", "note": "[Preparation Example 1, 4-(4-fluorophenyl)-2-methyl-5-(4-methylsulfonylphenyl)-1H-pyrrole]", "values": [{"measurement": "Edematization Suppression rate", "setting": "carrageenan footedema", "value": 35.5, "unit": "%"}, {"measurement": "pIC50", "setting": "Human COX-1", "value": 3.19}, {"measurement": "Body temperature 1 Hour After", "setting": "Brewer's Yeast Fever; 10 mg/kg oral, 1 hour after", "value": 37.98, "unit": "°C"}, {"measurement": "Body temperature 3 Hours After", "setting": "Brewer's Yeast Fever; 10 mg/kg oral, 3 hours after", "value": 37.10, "unit": "°C"}, {"measurement": "Body temperature 5 Hours After", "setting": "Brewer's Yeast Fever; 10 mg/kg oral, 5 hours after", "value": 37.13, "unit": "°C"}, {"measurement": "Intrafebrile Body Temperature", "setting": "Brewer's Yeast Fever; 18 hours after yeast injection, before administration, 10 mg/kg group", "value": 39.08, "unit": "°C"}, {"measurement": "Basal Body Temperature", "setting": "Brewer's Yeast Fever; one hour after sensor insertion, before yeast, 10 mg/kg group", "value": 37.54, "unit": "°C"}, {"measurement": "Pain Threshold Value Fluctuation Rate", "setting": "[1]; Left Hind Paw (non-inflammatory paw)", "value": 2.47, "unit": "%"}, {"measurement": "Pain Threshold Value Rising Rate", "setting": "[1]; Right Hind Paw (inflammatory paw)", "value": 33.3, "unit": "%"}, {"measurement": "cell apoptosis", "setting": "CaCo-2 cells", "value": "cell apoptosis caused by the compound of the invention was observed"}]}]}
